# Assay results reported in PubChem BioAssay (NCI).
#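 Growth conditions: 96-well plates. Treatment: test compound, 48 hours, 5 concentrations. Analysis: linear interpolation between bracketing concentrations; unreached endpoints set to highest concentration. GI50 = concentration required for 50% inhibition of growth. TGI marks complete inhibition of growth.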
# Legend:
# Test in all cases: NCI tumour cell line growth inhibition, 48 h
# [1] = test system: A549 NSCLC
# [2] = test system: HCC-2998 colon
# [3] = test system: IGROV1 ovarian
# [4] = test system: RPMI-8226 leukemia
# [5] = test system: HL-60(TB) leukemia
# [6] = test system: SK-MEL-28 melanoma
# [7] = test system: BT-549 breast
# [8] = test system: OVCAR-5 ovarian
# [9] = test system: ACHN renal
# [10] = test system: NCI/ADR-RES ovarian
# [11] = test system: SNB-75 CNS
# [12] = test system: RXF 393 renal
# [13] = test system: NCI-H226 lung
# [14] = test system: NCI-H23 lung
# [15] = test system: UACC-257 melanoma
# [16] = test system: HT29 colon
# [17] = test system: MALME-3M melanoma
# [18] = test system: UACC-62 melanoma
# [19] = test system: DU-145 prostate
# [20] = test system: 786-0 renal
# [21] = test system: SK-MEL-2 melanoma
# [22] = test system: MDA-MB-435
# [23] = test system: TK-10 renal
# [24] = test system: PC-3 prostate
# [25] = test system: K-562 leukemia
# [26] = test system: SR leukemia
# [27] = test system: M14 melanoma
# [28] = test system: MCF7 breast
# [29] = test system: HS 578T breast
# [30] = test system: SF-295 CNS
# [31] = test system: SF-268 CNS
# [32] = test system: SNB-19 CNS
# [33] = test system: U251 CNS
# [34] = test system: UO-31 renal
# [35] = test system: SF-539 CNS
# [36] = test system: LOX IMVI melanoma
# [37] = test system: T-47D breast
# [38] = test system: SW-620 colon
# [39] = test system: MDA-MB-231 breast
# [40] = test system: CAKI-1 renal
# [41] = test system: OVCAR-3 ovarian
# [42] = test system: NCI-H460 lung
# [43] = test system: CCRF-CEM leukemia
# [44] = test system: NCI-H522 lung
# [45] = test system: A498 renal
# [46] = test system: COLO 205 colon
# [47] = test system: HOP-92 NSCLC
# [48] = test system: KM12 colon
# [49] = test system: OVCAR-4 ovarian
# [50] = test system: HCT-116 colon
# [51] = test system: OVCAR-8 ovarian
# [52] = test system: SK-MEL-5 melanoma
# [53] = test system: MOLT-4 leukemia
# [54] = test system: HOP-62 NSCLC
# [55] = test system: HCT-15 colon
# [56] = test system: EKVX NSCLC
# [57] = test system: SK-OV-3 ovarian
# [58] = test system: MDA-MB-468 breast
# [59] = test system: SN12C renal
compound,measurement,setting,value
O=C(c1ccc(O)cc1)C1[C@H](c2ccc(Cl)cc2)[C@@H](c2ccccc2)NC12C(=O)Nc1ccccc12 (stereo partly drawn),GI50,[1],5.8 µM
same,TGI,[1],12.2 µM
same,GI50,[2],6.27 µM
same,TGI,[2],12 µM
same,GI50,[3],5.18 µM
same,TGI,[3],10.6 µM
same,GI50,[4],8.61 µM
same,TGI,[4],29.9 µM
same,GI50,[5],7.96 µM
same,TGI,[5],25.6 µM
same,GI50,[6],7.02 µM
same,TGI,[6],12.9 µM
same,GI50,[7],8.32 µM
same,TGI,[7],14.6 µM
same,GI50,[8],6.42 µM
same,TGI,[8],12.1 µM
same,GI50,[9],6.08 µM
same,TGI,[9],11.6 µM
same,GI50,[10],5.72 µM
same,TGI,[10],11.8 µM
same,GI50,[11],5.25 µM
same,TGI,[11],11 µM
same,GI50,[12],5.77 µM
same,TGI,[12],11.5 µM
same,GI50,[13],5.37 µM
same,TGI,[13],11.8 µM
same,GI50,[14],6.29 µM
same,TGI,[14],12.3 µM
same,GI50,[15],6.79 µM
same,TGI,[15],12.9 µM
same,GI50,[16],6.11 µM
same,TGI,[16],13.3 µM
same,GI50,[17],6.68 µM
same,TGI,[17],12.4 µM
same,GI50,[18],5 µM
same,TGI,[18],10.2 µM
same,GI50,[19],7.77 µM
same,TGI,[19],15.4 µM
same,GI50,[20],6.25 µM
same,TGI,[20],12.2 µM
same,GI50,[21],6.03 µM
same,TGI,[21],12.1 µM
same,GI50,[22],7.01 µM
same,TGI,[22],13.6 µM
same,GI50,[23],6.8 µM
same,TGI,[23],13.2 µM
same,GI50,[24],4.32 µM
same,TGI,[24],11.7 µM
same,GI50,[25],8.89 µM
same,TGI,[25],42 µM
same,GI50,[26],5.14 µM
same,TGI,[26],42 µM
same,GI50,[27],6.19 µM
same,TGI,[27],13.6 µM
same,GI50,[28],7.26 µM
same,TGI,[28],17.2 µM
same,GI50,[29],6.96 µM
same,TGI,[29],18.8 µM
same,GI50,[30],5.63 µM
same,TGI,[30],11 µM
same,GI50,[31],7 µM
same,TGI,[31],15.8 µM
same,GI50,[32],6.71 µM
same,TGI,[32],12.4 µM
same,GI50,[33],6.57 µM
same,TGI,[33],12.7 µM
same,GI50,[34],4.73 µM
same,TGI,[34],9.79 µM
same,GI50,[35],7.02 µM
same,TGI,[35],12.8 µM
same,GI50,[36],4.97 µM
same,TGI,[36],10.1 µM
same,GI50,[37],5.14 µM
same,TGI,[37],12.9 µM
same,GI50,[38],8.11 µM
same,TGI,[38],16 µM
same,GI50,[39],5.38 µM
same,TGI,[39],10.8 µM
same,GI50,[40],5.19 µM
same,TGI,[40],10.8 µM
same,GI50,[41],6.95 µM
same,TGI,[41],13.9 µM
same,GI50,[42],7.63 µM
same,TGI,[42],15.3 µM
same,GI50,[43],5.9 µM
same,TGI,[43],19.8 µM
same,GI50,[44],6.05 µM
same,TGI,[44],12.5 µM
same,GI50,[45],5.89 µM
same,TGI,[45],11.8 µM
same,GI50,[46],7.17 µM
same,TGI,[46],15.3 µM
same,GI50,[47],6.03 µM
same,TGI,[47],12.4 µM
same,GI50,[48],7.65 µM
same,TGI,[48],16.1 µM
same,GI50,[49],7.17 µM
same,TGI,[49],16.3 µM
same,GI50,[50],6.22 µM
same,TGI,[50],12.8 µM
same,GI50,[51],7.2 µM
same,TGI,[51],14.1 µM
same,GI50,[52],6.91 µM
same,TGI,[52],12.7 µM
same,GI50,[53],4.84 µM
same,TGI,[53],18.7 µM
same,GI50,[54],6.99 µM
same,TGI,[54],14.7 µM
same,GI50,[55],5.6 µM
same,TGI,[55],12.4 µM
same,GI50,[56],5.3 µM
same,TGI,[56],10.9 µM
same,GI50,[57],7.32 µM
same,TGI,[57],14 µM
same,GI50,[58],4.86 µM
same,TGI,[58],10.3 µM
same,GI50,[59],6.26 µM
same,TGI,[59],12 µM
